IC50 data for 19 compounds are collected here from patent US20140309265A1, “MACROCYCLIC COMPOUNDS FOR INHIBITION OF INHIBITORS OF APOPTOSIS” (Ensemble Therapeutics, priority 2011, published 2014).

Test [1] addresses T1, XIAP His-BIR2 (124-240/C202A/C213G) (Homo sapiens, UniProt P98170, C202A/C213G).
T1 construct: additions of His-BIR2 (124-240/C202A/C213G), Biotinylated SMAC peptide
Description: XIAP-BIR2/SMAC Peptide AlphaScreen Assay. It is filed as binding. The method, then: A. XIAP-BIR2/SMAC Peptide AlphaScreen Assay Assays were performed in white, flat-bottom, 384-well ProxiPlates (Perkin Elmer). […] The reaction was incubated at room temperature for 60 minutes. After 60 minutes, 2.5 μL of Alphascreen detection reagent (Perkin Elmer) was added to the reaction mixture and incubated at room temperature in the dark for 120 minutes. The Alphascreen signal generated by the reaction was detected on the Envision Plate Reader. […] Compounds were dissolved at 10 mM in dimethylsulfoxide (DMSO) and evaluated at eleven concentrations. IC50 values were derived by non-linear regression analysis.

The target of test [2] is N-His-Tb-BIR3(241-356, XIAP) (Homo sapiens, UniProt P98170). Description: XIAP-BIR3 SMAC Peptide Fluorescence Polarization Assay (FPA). The test is classed as binding.
The mark [3] stands for this setting: XIAP BIR2, AlphaScreen, Table 2, read-out: BIR2 IC50.
The mark [4] stands for this setting: XIAP BIR2, Alphascreen, Table 4, read-out: BIR2 Alpha Screen IC50.

Broadly, the IC50 is the concentration at which inhibition is half-maximal.

Like-named read-outs stand apart in the source and are kept apart here.

Chain of N-His-Tb-BIR3(241-356, XIAP) (P98170 241-356): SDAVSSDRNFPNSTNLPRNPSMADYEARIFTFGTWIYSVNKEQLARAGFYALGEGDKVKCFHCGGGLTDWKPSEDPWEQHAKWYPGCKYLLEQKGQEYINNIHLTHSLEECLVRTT
T1 sequence (P98170 124-240 C202A/C213G): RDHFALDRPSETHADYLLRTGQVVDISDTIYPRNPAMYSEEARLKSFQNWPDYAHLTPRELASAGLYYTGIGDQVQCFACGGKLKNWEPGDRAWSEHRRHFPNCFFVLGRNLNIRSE

For `CN[C@@H](C)C(=O)N[C@H](C(=O)N1C[C@@H]2C[C@H]1C(=O)N[C@@H](Cc1ccc(C(F)(F)F)cc1)C(=O)N[C@H](C(=O)O)Cc1ccc(cc1)COc1cn(nn1)[C@H]1C[C@@H](C(=O)N[C@@H](Cc3ccc(C(F)(F)F)cc3)C(=O)N[C@H](C(=O)O)Cc3ccc(cc3)OCc3cn2nn3)N(C(=O)[C@@H](NC(=O)[C@H](C)NC)C(C)C)C1)C(C)C` [Compound 113], the IC50 is above 12000 nM in test [1] (setting [3]) and 50 to 100 nM in test [2].

`CCS(=O)(=O)NC(=O)[C@@H]1Cc2ccc(cc2)OCc2cn(nn2)[C@H]2C[C@@H](C(=O)N[C@@H](Cc3ccc4ccccc4c3)C(=O)N[C@H](C(=O)NS(=O)(=O)CC)Cc3ccc(cc3)OCc3cn(nn3)[C@H]3C[C@@H](C(=O)N[C@@H](Cc4ccc5ccccc5c4)C(=O)N1)N(C(=O)[C@@H](NC(=O)[C@H](C)NC)C(C)(C)C)C3)N(C(=O)[C@@H](NC(=O)[C@H](C)NC)C(C)(C)C)C2` [Compound 1005]: the results for the concentration for half-maximal inhibition (IC50) in test [1] (setting [4]) and in test [2] were below 2000 nM and below 50 nM, respectively.

For `CN[C@@H](C)C(=O)N[C@H](C(=O)N1C[C@@H]2C[C@H]1C(=O)N[C@@H](Cc1ccc(-c3ccccc3)cc1)C(=O)N[C@H](C(=O)O)Cc1ccc(cc1)COc1cn(nn1)[C@H]1C[C@@H](C(=O)N[C@@H](Cc3ccc(-c4ccccc4)cc3)C(=O)N[C@H](C(=O)O)Cc3ccc(cc3)OCc3cn2nn3)N(C(=O)[C@@H](NC(=O)[C@H](C)NC)C(C)C)C1)C(C)C` [Compound 114], the IC50 is below 2000 nM in test [1] (setting [3]) and below 50 nM in test [2].

Take `CN[C@@H](C)C(=O)N[C@H](C(=O)N1CCc2cn(nn2)CCCOc2ccc(cc2)C[C@@H](C(=O)O)NC(=O)[C@H](Cc2ccccc2)NC(=O)CN(C(=O)[C@@H](NC(=O)[C@H](C)NC)C(C)C)CCc2cn(nn2)CCCOc2ccc(cc2)C[C@@H](C(=O)O)NC(=O)[C@H](Cc2ccccc2)NC(=O)C1)C(C)C` [Compound 103]: the IC50 in test [1] (setting [3]) was 2000 to 12000 nM; in test [2] (XIAP BIR3, FPA, Table 2, read-out: BIR3 IC50), above 100 nM.

With `CN[C@@H](C)C(=O)N[C@H](C(=O)N1C[C@@H]2C[C@H]1C(=O)N[C@@H](Cc1ccc3ccccc3c1)C(=O)N[C@H](C(=O)NS(C)(=O)=O)Cc1ccc(cc1)OCc1cn(nn1)[C@H]1C[C@@H](C(=O)N[C@@H](Cc3ccc4ccccc4c3)C(=O)N[C@H](C(=O)NS(C)(=O)=O)Cc3ccc(cc3)OCc3cn2nn3)N(C(=O)[C@@H](NC(=O)[C@H](C)NC)C(C)(C)C)C1)C(C)(C)C` [Compound 1004], the half-maximal inhibitory concentration (IC50) in test [1] (setting [4]) was below 2000 nM; in test [2], 50 to 100 nM.

For `CN[C@@H](C)C(=O)N[C@H](C(=O)N1C[C@@H]2C[C@H]1C(=O)N[C@@H](Cc1ccc(OC)c(OC)c1)C(=O)N[C@H](C(=O)O)Cc1ccc(cc1)OCc1cn(nn1)[C@H]1C[C@@H](C(=O)N[C@@H](Cc3ccc(OC)c(OC)c3)C(=O)N[C@H](C(=O)O)Cc3ccc(cc3)OCc3cn2nn3)N(C(=O)[C@@H](NC(=O)[C@H](C)NC)C2CCCCC2)C1)C1CCCCC1` [Compound 132], the concentration for half-maximal inhibition (IC50) in test [1] (setting [3]) is above 12000 nM; in test [2], above 100 nM.

In the case of `CN[C@@H](C)C(=O)N[C@H](C(=O)N1C[C@@H]2C[C@H]1C(=O)N[C@@H](Cc1csc3ccccc13)C(=O)N[C@H](C(=O)O)Cc1ccc(cc1)OCc1cn(nn1)[C@H]1C[C@@H](C(=O)N[C@@H](Cc3csc4ccccc34)C(=O)N[C@H](C(=O)O)Cc3ccc(cc3)OCc3cn2nn3)N(C(=O)[C@@H](NC(=O)[C@H](C)NC)C(C)C)C1)C(C)C` [Compound 124], the IC50 is below 2000 nM in test [1] (setting [3]) and below 50 nM in test [2].

As for `CN[C@@H](C)C(=O)N[C@H](C(=O)N1C[C@@H]2C[C@H]1C(=O)N[C@@H](Cc1ccc3ccccc3c1)C(=O)N[C@H](C(=O)NS(=O)(=O)c1ccccc1)Cc1ccc(cc1)OCc1cn(nn1)[C@H]1C[C@@H](C(=O)N[C@@H](Cc3ccc4ccccc4c3)C(=O)N[C@H](C(=O)NS(=O)(=O)c3ccccc3)Cc3ccc(cc3)OCc3cn2nn3)N(C(=O)[C@@H](NC(=O)[C@H](C)NC)C(C)(C)C)C1)C(C)(C)C` [Compound 1003], the half-maximal inhibitory concentration (IC50) in test [1] (setting [4]) is below 2000 nM; in test [2], 50 to 100 nM.

As for `CN[C@@H](C)C(=O)N[C@H](C(=O)N1C[C@@H]2C[C@H]1C(=O)N[C@@H](Cc1cccc(C(F)(F)F)c1)C(=O)N[C@H](C(=O)O)Cc1ccc(cc1)OCc1cn(nn1)[C@H]1C[C@@H](C(=O)N[C@@H](Cc3cccc(C(F)(F)F)c3)C(=O)N[C@H](C(=O)O)Cc3ccc(cc3)OCc3cn2nn3)N(C(=O)[C@@H](NC(=O)[C@H](C)NC)C2CCCCC2)C1)C1CCCCC1` [Compound 130], the results for the 50% inhibitory concentration (IC50) in test [1] (setting [3]) and in test [2] were 2000 to 12000 nM and below 50 nM, respectively.

`CN[C@@H](C)C(=O)N[C@H](C(=O)N1C[C@@H]2C[C@H]1C(=O)N[C@@H](Cc1ccccc1)C(=O)N[C@H](C(=O)O)Cc1ccc(cc1)OCc1cn(nn1)[C@H]1C[C@@H](C(=O)N[C@@H](Cc3ccc4ccccc4c3)C(=O)N[C@H](C(=O)O)Cc3ccc(cc3)OCc3cn2nn3)N(C(=O)[C@@H](NC(=O)[C@H](C)NC)C(C)(C)C)C1)C(C)(C)C` [Compound 149]: the values for the IC50 in test [1] (setting [4]) and in test [2] were below 2000 nM and below 50 nM, respectively.

Regarding `CN[C@@H](C)C(=O)N[C@H](C(=O)N1C[C@@H]2C[C@H]1C(=O)N[C@@H](Cc1ccccc1)C(=O)N[C@H](C(=O)O)Cc1ccc(cc1)OCc1cn(nn1)[C@H]1C[C@@H](C(=O)N[C@@H](Cc3ccc4ccccc4c3)C(=O)N[C@H](C(=O)OC)Cc3ccc(cc3)OCc3cn2nn3)N(C(=O)[C@@H](NC(=O)[C@H](C)NC)C(C)(C)C)C1)C(C)(C)C` [Compound 150], the results for the IC50 in test [1] (setting [4]) and in test [2] were below 2000 nM and 50 to 100 nM, respectively.

On to `CN[C@@H](C)C(=O)N[C@H](C(=O)N1C[C@@H]2C[C@H]1C(=O)N[C@@H](Cc1ccccc1)C(=O)N[C@H](C(=O)NCCN(C)C)Cc1ccc(cc1)OCc1cn(nn1)[C@H]1C[C@@H](C(=O)N[C@@H](Cc3ccccc3)C(=O)N[C@H](C(=O)NCCN(C)C)Cc3ccc(cc3)OCc3cn2nn3)N(C(=O)[C@@H](NC(=O)[C@H](C)NC)C(C)C)C1)C(C)C` [Compound 106], for which the IC50 is above 12000 nM in test [1] (setting [3]) and 50 to 100 nM in test [2].

Consider `CN[C@@H](C)C(=O)N[C@H](C(=O)N1C[C@@H]2C[C@H]1C(=O)N[C@@H](Cc1ccccc1)C(=O)N[C@H](C(=O)N1CCN(C)CC1)Cc1ccc(cc1)OCc1cn(nn1)[C@H]1C[C@@H](C(=O)N[C@@H](Cc3ccccc3)C(=O)N[C@H](C(=O)N3CCN(C)CC3)Cc3ccc(cc3)OCc3cn2nn3)N(C(=O)[C@@H](NC(=O)[C@H](C)NC)C(C)C)C1)C(C)C` [Compound 104], for which the IC50 in test [1] (setting [3]) was above 12000 nM; in test [2] it was 50 to 100 nM.

With `C=CCOc1ccc(C[C@@H]2NC(=O)[C@@H]3C[C@@H](CN3C(=O)[C@@H](NC(=O)[C@H](C)NC)C(C)C)n3cc(nn3)COc3ccc(cc3)C[C@@H](C(=O)O)NC(=O)[C@H](Cc3ccc(OCC=C)cc3)NC(=O)[C@@H]3C[C@@H](CN3C(=O)[C@@H](NC(=O)[C@H](C)NC)C(C)C)n3cc(nn3)COc3ccc(cc3)C[C@@H](C(=O)O)NC2=O)cc1` [Compound 126], the figures for the IC50 in test [1] (setting [3]) and in test [2] were 2000 to 12000 nM and 50 to 100 nM, respectively.

In the case of `CN[C@@H](C)C(=O)N[C@H](C(=O)N1C[C@@H]2C[C@H]1C(=O)N[C@@H](Cc1ccc3ccccc3c1)C(=O)N(C)[C@H](C(=O)O)Cc1ccc(cc1)OCc1cn(nn1)[C@H]1C[C@@H](C(=O)N[C@@H](Cc3ccc4ccccc4c3)C(=O)N(C)[C@H](C(=O)O)Cc3ccc(cc3)OCc3cn2nn3)N(C(=O)[C@@H](NC(=O)[C@H](C)NC)C(C)C)C1)C(C)C` [Compound 134], the figures for the IC50 in test [1] (setting [3]) and in test [2] were below 2000 nM and 50 to 100 nM, respectively.

As for `CCN(CC)C(=O)[C@@H]1Cc2ccc(cc2)OCc2cn(nn2)[C@H]2C[C@@H](C(=O)N[C@@H](Cc3ccccc3)C(=O)N[C@H](C(=O)N(CC)CC)Cc3ccc(cc3)OCc3cn(nn3)[C@H]3C[C@@H](C(=O)N[C@@H](Cc4ccccc4)C(=O)N1)N(C(=O)[C@@H](NC(=O)[C@H](C)NC)C(C)C)C3)N(C(=O)[C@@H](NC(=O)[C@H](C)NC)C(C)C)C2` [Compound 105], the IC50 in test [1] (setting [3]) was above 12000 nM; in test [2], 50 to 100 nM.

For `CN[C@@H](C)C(=O)N[C@H](C(=O)N1C[C@@H]2C[C@H]1C(=O)N[C@@H](Cc1c[nH]c3ccccc13)C(=O)N[C@H](C(=O)O)Cc1ccc(cc1)OCc1cn(nn1)[C@H]1C[C@@H](C(=O)N[C@@H](Cc3c[nH]c4ccccc34)C(=O)N[C@H](C(=O)O)Cc3ccc(cc3)OCc3cn2nn3)N(C(=O)[C@@H](NC(=O)[C@H](C)NC)C(C)C)C1)C(C)C` [Compound 125], the half-maximal inhibitory concentration (IC50) in test [1] (setting [3]) was below 2000 nM; in test [2], below 50 nM.

Regarding `CN[C@@H](C)C(=O)N[C@H](C(=O)N1C[C@@H]2C[C@H]1C(=O)N[C@@H](Cc1ccc(OCc3ccccc3)cc1)C(=O)N[C@H](C(=O)O)Cc1ccc(cc1)COc1cn(nn1)[C@H]1C[C@@H](C(=O)N[C@@H](Cc3ccc(OCc4ccccc4)cc3)C(=O)N[C@H](C(=O)O)Cc3ccc(cc3)OCc3cn2nn3)N(C(=O)[C@@H](NC(=O)[C@H](C)NC)C(C)C)C1)C(C)C` [Compound 115], the IC50 in test [1] (setting [3]) is 2000 to 12000 nM; in test [2], below 50 nM.

On to `CN[C@@H](C)C(=O)N[C@H](C(=O)N1C[C@@H]2C[C@H]1C(=O)N[C@@H](Cc1ccc3ccccc3c1)C(=O)N[C@H](C(=O)O)Cc1ccc(cc1)OCc1ccc(cc1)-c1cn(nn1)[C@H]1C[C@@H](C(=O)N[C@@H](Cc3ccc4ccccc4c3)C(=O)N[C@H](C(=O)O)Cc3ccc(cc3)OCc3cn2nn3)N(C(=O)[C@@H](NC(=O)[C@H](C)NC)C(C)(C)C)C1)C(C)(C)C` [Compound 1000], for which the concentration for half-maximal inhibition (IC50) in test [2] was in the range of 50 to 100 nM.
